Reference: patent publication US20050187150A1, “Structure-based design and synthesis of FGF inhibitors and FGF modulator compounds” (New York University, priority 2001, published 2005)

Key:
[1] = test system: ERK-1 and ERK-2; test: ERK-1/ERK-2 phosphorylation in BaF3 cells over-expressing FGFR1 (immunoblot); type: cell-based; conditions: co-incubation with FGF1 50 ng/ml; heparin 10 μg/ml or sulfonated β-cyclodextrin 5 and 25 μM
[2] = test system: BaF3 cells that stably express wild-type FGFR1; test: Proliferation of BaF3 cells stably expressing FGFR1 in the presence of FGF1; type: cell-based; conditions: FGF1 50 ng/ml; sulfonated β-cyclodextrin 1, 5, 10 and 25 μM
Description: This examples describes experiments that investigate the ability of sulfonated β-cyclodextrin to function as an effective heparin agonists. In particular, the cell-based assay described in Example 2, supra, is used here to investigate the ability of sulfonated β-cyclodextrin to modulate FGF ligand-dependent activation of the FGF receptor in vivo.
The assay uses a BaF3 cell line which overexpresses FGFR1. This cell line has been previously described and is known in the art (see, e.g., Huang et al., J. Biol. Chem. 1995, 270:5065-5072). BaF3 cells are a lymphoid cell line, which are dependent on interleukin-3 (IL-3) for growth. […] Accordingly, the growth rate of such transfected cells is useful as a measurement of FGF receptor activity in vivo. Ordinarily, because BaF3 cells express only low amounts of HSPG, soluble heparin must also be present to elicit the FGF-dependent mitogenic response observed in the transfected cells.
For the experiments described here, BaF3 cells that stably express wild-type FGFR1 ([…]) were cultured according to standard methods that have been previously described (see, Huang et al., supra). […] The numbers of viable cells in each well were counted daily in duplicate. […]

[3] = test system: FGFR1; test: FGF receptor autophosphorylation in BaF3 cells over-expressing FGFR (anti-FGFR1 immunoprecipitation, phosphotyrosine immunoblot); type: cell-based; conditions: five minutes stimulation with FGF1 50 ng/ml plus heparin 10 μg/ml or sulfonated cyclodextrin 5 or 25 μM
Experimental: To verify that the effect of sulfonated β-cyclodextrin observed in FIG. 15A is actually due to activation of the FGF receptor, experiments were conducted that examined the capacity of heparin and β-cyclodextrin to stimulate kinase activity of FGF receptor in living cells. See, Mohammadi et al., Science 1997, 276:955-960 for a detailed description of such experiments.
Briefly, BaF3 cells over-expressing FGFR were stimulated for five minutes with FGF1 ligand (50 ng/ml), heparin (10 μg/ml) and/or sulfonated […] 5 or 25 μM). The cells were then lysed. Their proteins were immunoprecipitated with antibodies to FGFR1, separated by SDS-polyacrylamide gel electrophoresis (PAGE), immunoblotted with antibodies to phosphotyrosine, and detected by autoradiography. […] See, the left-hand and right-hand lanes, respectively, in FIG. 15B.

[4] = target: T1, FGF2-FGFR1 complexes (Homo sapiens, UniProt P09038+P11362); test: X-ray crystallography of the dimeric FGF2-FGFR1-SOS ternary complex
T1 construct: made in house
T1 sequence (P11362 142-365): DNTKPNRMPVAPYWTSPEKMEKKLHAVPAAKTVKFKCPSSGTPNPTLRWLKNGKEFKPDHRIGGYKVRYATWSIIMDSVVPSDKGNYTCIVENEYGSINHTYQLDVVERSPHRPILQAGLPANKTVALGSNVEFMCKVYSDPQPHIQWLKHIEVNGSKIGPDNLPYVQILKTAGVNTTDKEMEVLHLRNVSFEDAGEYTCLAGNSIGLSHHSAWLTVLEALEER
T1 sequence (P09038 134-288): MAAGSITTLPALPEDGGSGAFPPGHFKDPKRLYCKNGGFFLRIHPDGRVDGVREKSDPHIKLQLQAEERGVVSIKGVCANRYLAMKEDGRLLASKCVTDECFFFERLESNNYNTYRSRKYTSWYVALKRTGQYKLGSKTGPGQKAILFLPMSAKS
Experimental: This example describes x-ray crystallography experiments that better characterize the molecular mechanisms by which SOS may interact with and/or stabilize dimers of FGF-FGFR complexes. In particular, this example describes the crystalization of FGF2-FGFR1 complexes with SOS and the solution of that crystal structure by analyzing x-ray diffraction data.
Crystals of dimeric FGF2-FGFR1-SOS complexes were grown by vapor diffusion at 20° C. using the hanging drop method. 2 μL of protein solution (10 mg/mL in 25 mM HEPES-NaOH (pH 7.5) and 150 mM NaCl) was mixed with an equal volume of crystallization buffer (12-16% Polyethylene glycol 5000, 0.2 M ammonium sulfate and 15% glycerol in 0.1 M HEPES-NaOH (pH 7.5)). The protein solution contained a 1:1:1 stoichiometric ratio of FGF2, and soluble FGFR1 construct described, supra, in Example 1, and SOS.
The crystal belongs to the orthorhombic space group P21 21 21 and has unit cell dimensions of a=64.2 Å, b=122.4 Å and c=219.5 Å. The crystal contains four FGF2-FGFR1-SOS complexes in the asymmetric unit with a solvent content of about 56%.
Diffraction data were collected from a flash-frozen crystal on a CCD detector at beamline X4A at the National Synchrotron Light Source, Brookhaven National Laboratory. The data were processed using DENZO and SCALEPACK (Otwinowski & Minor, Methods Enzymol. 1997, 276:307-326). […]

[5] = target: T1, FGF2-FGFR1 complexes; test: Size exclusion chromatography of purified 1:1 FGF2:FGFR1 complexes mixed with test compound (dimerization); type: binding; conditions: for dimerization of FGF:FGFR complex (peaks in size exclusion chromatogram): compound added at 1:1:1 molar ratio FGF2:FGFR1:compound; for dimerization of FGF:FGFR complex (dimer peak D in size exclusion chromatogram): compound added at molar ratio 1:1:0.25 and 1:1:0.5 FGF2:FGFR1:compound, Superdex 200, 25 mM HEPES-NaOH pH 7.5, 150 mM NaCl
Description: A construct encoding an extracellular ligand binding portion of the FGFR1 polypeptide set forth in FIG. 1A (SEQ ID NO:1) was expressed in E. coli and refolded […] using established protocols, as previously described by Plotnikov et al. (Cell 2000, 101:413-424). In particular, the soluble FGFR1 polypeptide expressed by this construct, which is referred to here as D23, comprises amino acid residues 142 to 365 of SEQ ID NO:1, which correspond to the immunoglobulin (Ig)-like domains 2 and 3 (D2 and D3, respectively), which are known to confer ligand binding and specificity for the FGFR receptor. However, the D23 polypeptide is missing the Ig-like domain 1 (D1), the acid box and the linker polypeptide sequence between D3 and the transmembrane helix. The D23 polypeptide is therefore similar to a naturally occurring splice variant of FGFR1 that retains full ligand binding capacity (Johnson et al., Mol. Cell. Biol. 1990, 10:4728-4736).
When expressed in E. coli cells, the D23 polypeptide was found entirely in inclusion bodies. The polypeptide was solubilized using standard denaturing reagents and refolded in vitro. Following purification by ion exchange chromatography, the D23 polypeptide was complexed with the FGF2 ligand polypeptide whose amino acid sequence is set forth in FIG. 2A (SEQ ID NO:3) and purified by size exclusion chromatography.
To quantitate dimerization, the purified 1:1 FGF2:FGFR1 complexes were mixed at various molar ratios with SOS and analyzed by size exclusion chromatography according on SUPERDEX 200® (Amersham Pharmacia Biotech.) size exclusion column in 25 mM HEPES-NaOH buffer (pH 7.5) containing 150 mM sodium chloride.
In these experiments, two milligram aliquots of the purified FGF2-FGFR1 complex described, supra, in Example 1 were mixed with suramin and analyzed on a size exclusion column equilibrated with 25 mM HEPES-NaOH buffer (pH 7.5) containing 150 mM NaCl.

[6] = test system: BaF3 cells that stably expressed wild-type FGFR1; test: Proliferation of BaF3 cells stably expressing FGFR1 in the presence of FGF2; type: cell-based
Description: This example describes experiments that investigated the ability of SOS to modulate FGF ligand-dependent activation of the FGF receptor in vivo. In particular, an assay is described here that uses a BaF3 cell line which overexpresses FGFR1. This cell line has been previously described and is therefore known in the art (see, e.g., Huang et al., J. Biol. Chem. 1995, 270:5065-5072).
BaF3 cells are a lymphoid cell line, which are dependent on interleukin-3 (IL-3) for growth. […] Accordingly, the growth rate of such transfected cells is useful as a measurement of FGF receptor activity in vivo. Because BaF3 cells express only low amounts of HSPG, soluble heparin must also be present to elicit the FGF-dependent mitogenic response observed in the transfected cells.
For the experiments discussed here, BaF3 cells that stably expressed wild-type FGFR1 (SEQ ID NO:1) were cultured according to standard methods that have been previously described (see, Huang et al., supra). 1×10^4 cells were seeded in triplicate wells and grown in the presence of heparin (3 μM) or, alternatively, in the presence of various concentrations (0.1, 0.5, 1, 5 and 10 μM, respectively) of SOS. The numbers of viable cells in each well were counted daily in duplicate.
Paradoxically, however, FGFR dimers promoted by suramin are signaling incompetent. That is to say, the FGF receptor is not activated in these dimers. […]

hydrogen bonds of the well ordered SOS molecule with FGF2 and both FGFR1 molecules ([4]; crystal structure at 2.6 Å resolution) | effect on FGF-FGFR binding affinity inferred from the crystal structure ([4]; interaction mimics heparin) | Compound | autophosphorylation of ERK-1 and ERK-2 [1] | proliferation of BaF3 cells over expressing FGFR1 (daily viable cell counts) [2] | autophosphorylation of the FGF receptor [3] | dimerization of FGF:FGFR complex (peaks in size exclusion chromatogram) [5] | dimerization of FGF:FGFR complex (dimer peak D in size exclusion chromatogram) [5] | proliferation of BaF3 cells over expressing FGFR1 (daily viable cell counts) ([6]; FGF2 50 ng/ml, SOS 0.1, 0.5, 1, 5 and 10 μM) | heparin-like or SOS-like activity (FGF ligand-dependent activation of FGF receptor, BaF3 cell growth) ([6]; BaF3 cells grown with suramin instead of heparin or SOS, contacted with FGF ligand)
 |  | sulfonated β-cyclodextrin | induces autophosphorylation of ERK-1 and ERK-2 | supports the FGF ligand in inducing proliferation of the BaF3 cells over expressing FGFR1 in a dose-dependent manner | results in autophosphorylation of the FGF receptor |  |  |  | 
 |  | heparin | induces autophosphorylation of ERK-1 and ERK-2 |  | stimulated autophosphorylation of the FGF receptor |  |  |  | 
13 | increases FGF-FGFR binding affinity | O=S(=O)(O)OC[C@H]1O[C@@](COS(=O)(=O)O)(O[C@H]2O[C@H](COS(=O)(=O)O)[C@@H](OS(=O)(=O)O)[C@H](OS(=O)(=O)O)[C@H]2OS(=O)(=O)O)[C@@H](OS(=O)(=O)O)[C@@H]1OS(=O)(=O)O [SOS, sucrose octasulfate] |  |  |  | only a peak corresponding to FGF:FGFR dimers is observed | a third peak corresponding to dimers of the FGF:FGFR complex is observed | supports FGF2 in inducing proliferation of the BaF3 cells over expressing FGFR1 in a dose-dependent manner | 
 |  | Cc1ccc(C(=O)Nc2ccc(S(=O)(=O)O)c3cc(S(=O)(=O)O)cc(S(=O)(=O)O)c23)cc1NC(=O)c1cccc(NC(=O)Nc2cccc(C(=O)Nc3cc(C(=O)Nc4ccc(S(=O)(=O)O)c5cc(S(=O)(=O)O)cc(S(=O)(=O)O)c45)ccc3C)c2)c1 [suramin] |  |  |  | only a peak corresponding to the FGF:FGFR dimers is observed | a third peak corresponding to dimers of the FGF:FGFR complex is observed |  | no heparin-like or SOS-like activity was observed
